Experiments:
T-47D = experiment: NCI in vitro 60-cell drug screen (SRB assay); type: cell-based; conditions: T-47D (Breast cancer); 10^-5 molar concentration; 48 hours
DU-145 [1] = experiment: NCI in vitro 60-cell drug screen (SRB assay); type: cell-based; conditions: DU-145 (Prostate cancer); 10^-5 molar concentration; 48 hours
OVCAR-5 = experiment: NCI in vitro 60-cell drug screen (SRB assay); type: cell-based; conditions: OVCAR-5 (Ovarian cancer); 10^-5 molar concentration; 48 hours
IGROV1 = experiment: NCI in vitro 60-cell drug screen (SRB assay); type: cell-based; conditions: IGROV1 (Ovarian cancer); 10^-5 molar concentration; 48 hours
HT29 = experiment: NCI in vitro 60-cell drug screen (SRB assay); type: cell-based; conditions: HT29 (Colon cancer); 10^-5 molar concentration; 48 hours
COLO 205 = experiment: NCI in vitro 60-cell drug screen (SRB assay); type: cell-based; conditions: COLO 205 (Colon cancer); 10^-5 molar concentration; 48 hours
ACHN = experiment: NCI in vitro 60-cell drug screen (SRB assay); type: cell-based; conditions: ACHN (Renal cancer); 10^-5 molar concentration; 48 hours
NCI/ADR-RES = experiment: NCI in vitro 60-cell drug screen (SRB assay); type: cell-based; conditions: NCI/ADR-RES (Ovarian cancer); 10^-5 molar concentration; 48 hours
MDA-MB-486 = experiment: NCI in vitro 60-cell drug screen (SRB assay); type: cell-based; conditions: MDA-MB-486 (Breast cancer); 10^-5 molar concentration; 48 hours
HOP-92 = experiment: NCI in vitro 60-cell drug screen (SRB assay); type: cell-based; conditions: HOP-92 (Non-small cell lung cancer); 10^-5 molar concentration; 48 hours
CCRF-CEM = experiment: NCI in vitro 60-cell drug screen (SRB assay); type: cell-based; conditions: CCRF-CEM (Leukemia); 10^-5 molar concentration; 48 hours
SK-MEL-2 = experiment: NCI in vitro 60-cell drug screen (SRB assay); type: cell-based; conditions: SK-MEL-2 (Melanoma); 10^-5 molar concentration; 48 hours
UACC-62 = experiment: NCI in vitro 60-cell drug screen (SRB assay); type: cell-based; conditions: UACC-62 (Melanoma); 10^-5 molar concentration; 48 hours
MDA-MB-435 = experiment: NCI in vitro 60-cell drug screen (SRB assay); type: cell-based; conditions: MDA-MB-435 (Melanoma); 10^-5 molar concentration; 48 hours
HCT-15 = experiment: NCI in vitro 60-cell drug screen (SRB assay); type: cell-based; conditions: HCT-15 (Colon cancer); 10^-5 molar concentration; 48 hours
KM12 = experiment: NCI in vitro 60-cell drug screen (SRB assay); type: cell-based; conditions: KM12 (Colon cancer); 10^-5 molar concentration; 48 hours
TK-10 = experiment: NCI in vitro 60-cell drug screen (SRB assay); type: cell-based; conditions: TK-10 (Renal cancer); 10^-5 molar concentration; 48 hours
OVCAR-3 = experiment: NCI in vitro 60-cell drug screen (SRB assay); type: cell-based; conditions: OVCAR-3 (Ovarian cancer); 10^-5 molar concentration; 48 hours
MALME-3M = experiment: NCI in vitro 60-cell drug screen (SRB assay); type: cell-based; conditions: MALME-3M (Melanoma); 10^-5 molar concentration; 48 hours
SF-295 = experiment: NCI in vitro 60-cell drug screen (SRB assay); type: cell-based; conditions: SF-295 (CNS cancer); 10^-5 molar concentration; 48 hours
OVCAR-4 = experiment: NCI in vitro 60-cell drug screen (SRB assay); type: cell-based; conditions: OVCAR-4 (Ovarian cancer); 10^-5 molar concentration; 48 hours
U251 = experiment: NCI in vitro 60-cell drug screen (SRB assay); type: cell-based; conditions: U251 (CNS cancer); 10^-5 molar concentration; 48 hours
SK-MEL-28 = experiment: NCI in vitro 60-cell drug screen (SRB assay); type: cell-based; conditions: SK-MEL-28 (Melanoma); 10^-5 molar concentration; 48 hours
60 cell lines = experiment: NCI in vitro 60-cell drug screen (SRB assay), whole panel statistics; conditions: mean over the cell panel; 10^-5 molar concentration; 48 hours
HL-60(TB) = experiment: NCI in vitro 60-cell drug screen (SRB assay); type: cell-based; conditions: HL-60(TB) (Leukemia); 10^-5 molar concentration; 48 hours
DU-145 [2] = experiment: MTT assay for cell cytotoxicity; type: cell-based, human; conditions: Homo sapiens, 72 h, at least three independent experiments, read-out: MTT assay (IC50 ± SD) DU-145
Procedure: (§1) All of synthesis compounds were evaluated cell cytotoxicity by using MTT colorimetric assay on PC-3 and DU-145 cell lines. DU-145 and PC-3 are human hormone-refractory (androgen-independent) prostatic cancer cell lines from American Type Culture Collection (HTB-81™, ATCC, Rockville, MD)^125 and Bioresource Collection and Research Center (60122, BCRC, Taiwan)^126, respectively. Two of the "classical" cell lines were cultivated in RPMI-1640 medium supplemented with 5% fetal bovine serum (v/v), 100 U/mL penicillin, and […] streptomycin. Approximately 2 x 10^3 cells were seeded into each well of a 96-well plate and incubated in 5% CO2 at 37 °C for 24 h. To evaluate the in vitro cytotoxicity, all the synthetic compounds were dissolved in DMSO, prepared immediately before the experiments and diluted into the complete medium before being added to each well of a 96-well plate. Each compound was then added to the culture medium for designated various concentrations (0.15, 0.5, 1.5, 5, 15 µM). After 72 h, an amount of 100 µL of MTT (1 mg/mL) was added to each well, and the samples were incubated at 37 °C for 4 h. After removing the MTT solution, 100 µL of DMSO was added to each well and incubated at 37 °C for another 20 mins. The absorbency at 560 nm was measured by using an ELISA reader.
(§2) Results are expressed as mean values of at least three independent experiments. The IC50 values of testing compounds were described in Table 1. Table1. Effects of 10-Chloro-12H-thiochromeno[2,3-c]quinolin -12-one derivatives on cytotoxicity by MTT assay.

PC-3 = experiment: MTT assay for cell cytotoxicity; type: cell-based, human; conditions: Homo sapiens, 72 h, at least three independent experiments, read-out: MTT assay (IC50 ± SD) PC-3
Procedure: as §1, §2

A498 = experiment: NCI in vitro 60-cell drug screen (SRB assay); type: cell-based; conditions: A498 (Renal cancer); 10^-5 molar concentration; 48 hours

Row | Compound | Growth percent (T-47D) | Growth percent (DU-145 [1]) | Growth percent (OVCAR-5) | Growth percent (IGROV1) | Growth percent (HT29) | Growth percent (COLO 205) | Growth percent (ACHN) | Growth percent (NCI/ADR-RES) | Growth percent (MDA-MB-486) | Growth percent (HOP-92) | Growth percent (CCRF-CEM) | Growth percent (SK-MEL-2) | Growth percent (UACC-62) | Growth percent (MDA-MB-435) | Growth percent (HCT-15) | Growth percent (KM12) | Growth percent (TK-10) | Growth percent (OVCAR-3) | Growth percent (MALME-3M) | Growth percent (SF-295) | also measured
1 | O=C(O)c1c(Sc2ccc(Cl)cc2)c(O)nc2ccccc12 [Compound 2, 3-((4-Chlorophenyl)thio)-2-hydroxyquinoline-4-carboxylic acid] | 99.59% | 115.22% | 112.47% | 103.57% | 101.41% | 108.65% | 113.47% | 97.75% | 104.57% | 72.97% | 98.31% | 119.91% | 102.05% | 102.02% | 107.80% | 112.61% | 118.09% | 121.29% | 107.05% | 98.99% | Growth percent (OVCAR-4): 98.41%; Growth percent (U251): 99.59%; Growth percent (SK-MEL-28): 98.95%; Growth percent, Mean (60 cell lines): 102.11%; Growth percent (HL-60(TB)): 105.63%; IC50 (DU-145 [2]): > 15 µM; IC50 (PC-3): > 15 µM
2 | CN1CCN(c2nc3ccccc3c3c(=O)c4cc(Cl)ccc4sc23)CC1 [Compound 8, 10-Chloro-6-(4-methylpiperazin-1-yl)-12H-thiochromeno[2,3-c]q uinolin-12-one] | 82.24% | 103.45% | 98.14% | 80.08% | 78.65% | 90.06% | 89.73% | 81.35% | 102.02% | 17.97% | 91.60% | 97.53% | 99.27% | 105.80% | 93.94% | 110.71% | 97.07% | 89.13% | 108.36% | 91.69% | Growth percent (OVCAR-4): 94.93%; Growth percent (A498): 79.33%; Growth percent (U251): 92.52%; Growth percent (SK-MEL-28): 107.92%; Growth percent, Mean (60 cell lines): 86.81%; Growth percent (HL-60(TB)): 96.19%; IC50 (DU-145 [2]): 12.9 ± 0.26 µM; IC50 (PC-3): 7.18 ± 2.45 µM
3 | CN(C)c1nc2ccccc2c2c(=O)c3cc(Cl)ccc3sc12 [Compound 6, 10-Chloro-6-dimethylamino-12H-thiochromeno[2,3-c]quinolin-12-one] | 37.66% | 92.93% | 98.05% | 68.16% | 87.73% | 89.67% | 64.81% | 87.86% | 29.91% | 58.65% | 99.42% | 87.26% | 87.80% | 107.18% | 89.27% | 96.40% | 64.75% | 79.65% | 89.70% | 48.82% | Growth percent (A498): 97.06%; Growth percent (U251): 93.55%; Growth percent (SK-MEL-28): 96.60%; Growth percent, Mean (60 cell lines): 80.59%; Growth percent (HL-60(TB)): 107.16%; IC50 (DU-145 [2]): > 15 µM; IC50 (PC-3): > 15 µM
4 | COc1nc2ccccc2c2c(=O)c3cc(Cl)ccc3sc12 [Compound 5, 10-Chloro-6-methoxy-12H-thiochromeno[2,3-c]quinolin-12-one] | 68.46% | 104.27% | 106.70% | 71.44% | 102.69% | 97.94% | 74.89% | 96.10% | 103.54% | 80.11% | 106.56% | 105.52% | 96.15% | 103.83% | 107.99% | 98.03% | 113.30% | 96.60% | 94.19% | 86.35% | Growth percent (A498): 96.29%; Growth percent (U251): 99.18%; Growth percent (SK-MEL-28): 112.31%; Growth percent, Mean (60 cell lines): 92.10%; Growth percent (HL-60(TB)): 89.47%; IC50 (DU-145 [2]): 10.8 ± 6.55 µM; IC50 (PC-3): 3.89 ± 0.54 µM
5 | O=c1c2cc(Cl)ccc2sc2c(O)nc3ccccc3c12 [Compound 4, 10-Chloro-6-hydroxy-12H-thiochromeno[2,3-c]quinolin-12-one] | 77.89% | 99.80% | 111.17% | 78.35% | 96.78% | 93.69% | 95.52% | 96.84% | 100.33% | 93.13% | 107.78% | 103.04% | 105.86% | 103.18% | 98.11% | 102.45% | 113.26% | 106.37% | 93.26% | 99.93% | Growth percent (A498): 107.74%; Growth percent (U251): 101.85%; Growth percent (SK-MEL-28): 116.59%; Growth percent, Mean (60 cell lines): 97.17%; Growth percent (HL-60(TB)): 109.82%; IC50 (DU-145 [2]): > 15 µM; IC50 (PC-3): 10.1 ± 1.81 µM

Reference: patent EP3002287B1, “Thiochromeno[2,3-c]quinolin-12-one derivatives and their use as topoisomerase inhibitors” (National Defense Medical Center, priority 2014, dated 2016)
